Assay results from patent publication US6291515A, “Use of efomycins” (Bayer Aktiengesellschaft, priority 1996, dated 2001).

What was measured:
Format in all cases: cell-based
[1] = system: adhesion of human PMNL to hypoxia-stimulated pig aorta; assay: Inhibition of PMNL adhesion to hypoxia-stimulated pig aortas, human PMNL; conditions: proportion of adherent PMNL vs control (=100), 90-minute coincubation at 37° C., MPO readout
Method: (§1) Freshly isolated pig aortas were brought into the laboratory from the local slaughterhouse in oxygen-aerated, phosphate-buffered saline solution (PBS). Freshly obtained pig or human blood was taken for the preparation of polymorphonuclear neutrophilic granulocytes (PMNL). The aortas were stimulated by placing them for 30 minutes in PBS which was aerated with nitrogen (hypoxia stimulus). The aorta were then fixed between a Teflon block (below) and a specially made steel plate (above) with drilled wells (similar to a microtiter plate). PMNL and the potential adhesion inhibitors were added to the luminal side, i.e. to the stimulated endothelial cell layer, in cell media (M199, Gibco). After a 90-minute coincubation at 37° C. in an incubator, the wells were washed. The remaining adherent PMNL were lysed. The activity of the PMNL-specific myeloperoxidase (MPO) in the lysate was determined photometrically and compared to the untreated control (only solvent). […] The proportion of the adherent PMNL in comparison with the control is indicated.
(§2) Inhibition of the adhesion of pig PMNL or human PMNL to hypoxia-stimulated pig aorta by efomycins

[2] = system: adhesion of pig PMNL to hypoxia-stimulated pig aorta; assay: Inhibition of PMNL adhesion to hypoxia-stimulated pig aortas, pig PMNL; conditions: for % adherent PMNL, Pig PMNL: hypoxia-stimulated pig aorta, proportion of adherent PMNL vs control (=100), 90-minute coincubation at 37° C., MPO readout
Method: as §1, §2

[3] = system: cultured endothelial cells; assay: MTT test for cytotoxicity on endothelial cells; conditions: at efficacious concentrations
[4] = system: adhesion of PMNL to albumin-coated plastic surfaces; assay: Adhesion of PMNL to albumin-coated plastic surfaces; conditions: test described in EP 0 461 499 A2 (Use Example 1)
Text: The adhesion test to albumin-coated plastic surfaces is described in detail, inter alia, in EP 0 461 499 A2 (Use Example 1).

## CC[C@@H](/C=C/C(=O)[C@@H](C)[C@H](OC(C)=O)[C@H](C)[C@H]1OC(=O)/C=C/C=C/[C@H](C)[C@@H]([C@@H](C)[C@@H](OC(C)=O)[C@H](C)C(=O)/C=C/[C@H](CC)[C@@H](C)OC(C)=O)OC(=O)/C=C/C=C/[C@@H]1C)[C@@H](C)OC(C)=O [Ex. No. 2]
[1]
  % adherent PMNL, Human PMNL: 90 ± 5%
[2]
  % adherent PMNL, Pig PMNL: 85 ± 11%

## CC[C@@H](/C=C/C(=O)[C@@H](C)[C@H](O)[C@H](C)[C@H]1OC(=O)/C=C/C=C/[C@H](C)[C@@H]([C@@H](C)[C@@H](O)[C@H](C)C(=O)/C=C/[C@H](CC)[C@@H](C)O)OC(=O)/C=C/C=C/[C@@H]1C)[C@@H](C)O [Ex. No. 1]
[1]
  % adherent PMNL, Human PMNL: 52 ± 2%
[3]
  cytotoxicity against endothelial cells in the MTT test: no cytotoxicity
[2]; PMNL species not given
  activity in the test model described (PMNL adhesion to hypoxia-stimulated pig aorta), in words: active
[2]
  % adherent PMNL, Pig PMNL: 33 ± 23%
[4]
  inhibition of adhesion of PMNL to albumin-coated plastic surfaces: does not inhibit
